Laboratory results from US20150328116A1, “Oral Care Composition Containing Ionic Liquids” (COLGATE-PALMOLIVE COMPANY, priority 2012, published 2015).
Entries after “also recorded” stand apart in the source; their conditions may differ. Where two headings read alike, the source gives them in different places.

Key:
[1] = system: 3-day old biofilm of artificial mouth consortium of bacteria (A. naeslundii, S. oralis, V. parvula, L. casei, F. nucleatum) and S. mutans; test: In vitro removal of a 3-day old biofilm (optical density reduction); type: cell-based; conditions: for Percent Biofilm Removal (BMIM Cationic Series): […] BMIM-based ionic liquids in base prototype mouth rinse of Table 1
[2] = In-vitro removal of tooth stains / teeth whitening (L*a*b*); set-up: species or system human; conditions: 1M in prototype whitening mouthwash base (Table 7); teeth soaked one hour
A. viscosus [3] = test: Growth inhibition of A. viscosus (optical density over time); type: cell-based
Method: DMIM chloride was incorporated into a prototype mouth rinse as illustrated in Table 9. […] The growth inhibition was measured as a change in optical density over time.

A. viscosus [4] = test: Short Interval Kill Test (SIKT); type: cell-based; conditions: 0.3, 0.6 and 1 wt % in prototype mouth rinse of Table 9
Text: SIKT determines the kill effect of a test article at a predetermined exposure time. […] The reaction was neutralized after 30 seconds by adding a neutralizing broth. The reaction mixture was further diluted and plated on MCA (Microbial Count Agar) plates for viable bacterial count.

A. viscosus [5] = test: Minimum inhibitory concentration; type: cell-based; conditions: Actinomyces viscosus; 24 hours incubation, optical density at 610 nm
Dental plaque samples = test: Dissolution of plaque (visual pellet after centrifugation); conditions: water-insoluble plaque, ionic liquid added, vortex mixed at room temperature, centrifuged at 13,000 g
[6] = […] ionic liquid in base prototype mouth rinse of Table 1, 15 minutes, relative to water
[7] = direct comparison between EMIM and BMIM with different anions

## 1,2,3-trimethylimidazolium methyl sulfate [TMIM MeSO4]
[1]
  Percent Biofilm Removed (Other Ionic Liquids): 51.8%
  Percent Removal of a 3-day Oral Biofilm: 51.8%

## 1-butyl-3-methylimidazolium methyl sulfate [BMIM MeSO4]
[1]
  Percent Biofilm Removal (BMIM Cationic Series): 53.9%
[1]; [6]
  Percent Removal of a 3-day Oral Biofilm: 53.9%

## 1-butyl-3-methylimidazolium octyl sulfate [BMIM Octyl SO4]
[1]
  Percent Biofilm Removal (BMIM Cationic Series): 58.6%
[1]; [6]
  Percent Removal of a 3-day Oral Biofilm: 58.6%

## 1-ethyl-3-methylimidazolium diethyl phosphate [EMIM diethyl PO4]
[1]; [6]
  Percent Removal of a 3-day Oral Biofilm: 52.7%

## 1-ethyl-3-methylimidazolium ethyl sulfate [EMIM Ethyl SO4]
[1]
  Percent Removal of a 3-day Oral Biofilm: 48.1%
[2]
  ΔE: 4.41
  ΔL: 3.40
  ΔW: −2.99

## C=CCn1cc[n+](C)c1.[Cl-] [AMIM Cl, 1-allyl-3-methylimidazolium chloride]
[1]
  Percent Biofilm Removed (Other Ionic Liquids): 44.8%
  Percent Removal of a 3-day Oral Biofilm: 44.8%
  biofilm removal, comparison in words: effective in removing biofilm

## CCCCn1cc[n+](C)c1.[Br-] [BMIM Br, 1-butyl-3-methylimidazolium bromide]
[1]
  Percent Biofilm Removal (BMIM Cationic Series): 48.0%
[1]; [6]
  Percent Removal of a 3-day Oral Biofilm: 48.0%
[1]; [7]
  Percent Biofilm Removed (EMIM vs BMIM comparison): 48.0%

## CCCCn1cc[n+](C)c1.[Cl-] [BMIM Cl, 1-butyl-3-methylimidazolium chloride]
[1]
  Percent Biofilm Removal (BMIM Cationic Series): 43.8%
[1]; [6]
  Percent Removal of a 3-day Oral Biofilm: 43.8%
[1]; [7]
  Percent Biofilm Removed (EMIM vs BMIM comparison): 43.8%

## CC(=O)[O-].CCCCn1cc[n+](C)c1 [BMIM OAc, 1-butyl-3-methylimidazolium acetate]
[1]
  Percent Biofilm Removal (BMIM Cationic Series): 55.8%
[1]; [6]
  Percent Removal of a 3-day Oral Biofilm: 55.9%
[1]; [7]
  Percent Biofilm Removed (EMIM vs BMIM comparison): 55.8%

## CCCCCCCCCCn1cc[n+](C)c1.[Cl-] [DMIM Cl, 1-decyl-3-methylimidazolium chloride]
[1]; [6]
  Percent Removal of a 3-day Oral Biofilm: 57.3%
[1]; comment on Tables 2 and 6, listed as DMIM chloride
  biofilm removal, comparison in words: significantly more effective in removing biofilm than EMIM chloride and BMIM chloride; also recorded: most effective in removing biofilm
[1]; protocol of Example 2
  Percent Biofilm Removed (Other Ionic Liquids): 57.3%
A. viscosus [3]; 0.312 wt % in prototype mouth rinse
  growth inhibition of A. viscosus: Growth inhibition of A.viscosus is maintained
A. viscosus [3]; 1 wt % in prototype mouth rinse (Table 9), versus mouthwash containing cetylpyridinium chloride
  growth inhibition of A. viscosus: greater growth inhibition of A. viscosus than a mouthwash containing cetylpyridinium chloride
A. viscosus [4]
  time to kill A. viscosus: ≤ 30 s
A. viscosus [5]
  MIC: 125 mg/L

## CCn1cc[n+](C)c1.[Br-] [EMIM Br, 1-ethyl-3-methylimidazolium bromide]
Dental plaque samples
  plaque dissolution (size of the plaque pellet): size of the plaque pellet is reduced
[1]; [6]
  Percent Removal of a 3-day Oral Biofilm: 48.6%
[1]; [7]
  Percent Biofilm Removed (EMIM vs BMIM comparison): 48.6%

## CCn1cc[n+](C)c1.[Cl-] [EMIM Cl, 1-ethyl-3-methylimidazolium chloride]
[1]
  Percent Biofilm Removed (EMIM vs BMIM comparison): 44.3%
  Percent Removal of a 3-day Oral Biofilm: 44.3%

## CC(=O)[O-].CCn1cc[n+](C)c1 [EMIM OAc, 1-ethyl-3-methylimidazolium acetate]
[1]; [6]
  Percent Removal of a 3-day Oral Biofilm: 52.1%
[1]; [7]
  Percent Biofilm Removed (EMIM vs BMIM comparison): 52.1%

## CCn1cc[n+](C)c1.Cc1ccc(S(=O)(=O)[O-])cc1 [EMIM Tosylate, 1-ethyl-3-methylimidazolium tosylate]
[1]; [6]
  Percent Removal of a 3-day Oral Biofilm: 59.5%

## COS(=O)(=O)[O-].Cc1cc[n+](C)n1C [MMMPz MeSO4, 1,2,3-trimethylpyrazolium (MMMPZ) methyl sulfate]
[1]; [6]
  Percent Removal of a 3-day Oral Biofilm: 57.8%
[1]; protocol of Example 2
  Percent Biofilm Removed (Other Ionic Liquids): 57.9%

## tris(2-hydroxyethyl)methylammonium sulfate [MTEOA MeSO4]
[1]
  Percent Biofilm Removed (Other Ionic Liquids): 52.8%
  Percent Removal of a 3-day Oral Biofilm: 52.8%
